Experiment [1] concerns the target Plasmepsin-2 (PM-2; Plm II) (Plasmodium falciparum (isolate HB3), UniProt P46925). The experiment is described as follows: Plasmepsin-2 enzyme inhibition assay. The format is biochemical. The conditions noted are these: read-out: PM-2 IC50. The method, then: Plasmepsin-2 (PM-2; Plm II) and Plasmepsin (PM-4; Plm IV) expression and purification was performed following the published protocols (Istvan E S and Goldberg D E, 2005). The final purified protein was activated by diluting the protein to 0.3 mg/mL in activating buffer (0.1 M citrate pH 4.5, 0.1% Tween-20, 50 mM dithiothreitol) and incubated at room temperature for 40 min, then the activated enzyme was diluted in assay buffer (50 mM sodium acetate pH 4.7, 0.01% Tween-20). The enzymatic inhibition reaction was performed in 384 well plates with a total volume of 20 μl. 10 μl of diluted PM-2 or PM-4 enzyme was added to the 384-well plate except blank wells (blank wells add 10 μL of assay buffer) and 20 nL of serials of diluted 1000× compounds were added to the wells with 520 Echo® Liquid Handling System (Labcyte Inc.). 10 μL PM-2 peptide substrate (AnaSpec, Cat#, 62050) with assay buffer was then added to final concentration of 20 μM to start the reaction. After incubation the reaction at room temperature for 60 min, the fluorescence intensity at Ex/Em=360 nm/535 nm was measured using EnVision multilabel plate reader (Perkin-Elmer). The IC50 values were obtained using Graph Pad Prism 4 and are reported in Tables 8 and 9 below as PM-2 IC50 values.

Experiment [2] has as its system Plasmodium falciparum 3D7 (CQ-sensitive). The experiment is described as follows: In vitro antimalarial assay (malaria SYBR Green I-based fluorescence, MSF), 3D7. The format is cell-based. The method, then: Stock solutions of each test drug were prepared in DMSO at a concentration of 20 mM. The drug solutions were serially diluted with culture medium and distributed to asynchronous parasite cultures on 96-well plates in quadruplicate in a total volume of 100 μL to achieve 0.5% parasitemia with a 2% hematocrit in a total volume of 100 pt. […] After incubation, 100 μL of lysis buffer with 0.2 μL/mL SYBR Green I was added to each well.
Antimalarial potency of compounds was determined by this technique for both Plasmodium falciparum 3D7 (CQ-sensitive) and Dd2 (multi-drug resistant) strains.

[3] abbreviates: 3D7, Table 13, read-out: 3D7 IC50.
[4] abbreviates: 3D7, Table 11, read-out: Pf 3D7 IC50.
Setting [5] is: 3D7, Table 12, read-out: 3D7 IC50.

Like-named read-outs stand apart in the source and are kept apart here.

Chain of Plasmepsin-2 (PM-2; Plm II) (P46925 125-453 limits assumed): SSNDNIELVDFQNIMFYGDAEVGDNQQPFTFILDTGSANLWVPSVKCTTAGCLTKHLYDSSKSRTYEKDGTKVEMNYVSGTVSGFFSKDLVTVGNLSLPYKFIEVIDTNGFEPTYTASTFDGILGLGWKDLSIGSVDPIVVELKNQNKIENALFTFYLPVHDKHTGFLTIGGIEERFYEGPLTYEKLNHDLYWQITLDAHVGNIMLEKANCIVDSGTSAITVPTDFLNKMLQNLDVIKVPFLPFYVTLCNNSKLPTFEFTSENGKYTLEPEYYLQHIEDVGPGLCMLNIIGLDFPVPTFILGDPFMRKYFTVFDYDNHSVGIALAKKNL

The term IC50 denotes the point on the concentration scale where inhibition reaches its midpoint. Regarding `N=C1NC(c2ccccc2)(c2ccccc2)C(=O)N1C1CCOCC1` [Example 198, 2-imino-3-(oxan-4-yl)-5,5-diphenyl-imidazolidin-4-one], the concentration for half-maximal inhibition (IC50) was 118 nM in experiment [1] (Table 13) and greater than 2500 nM in experiment [2] (setting [3]).

`COc1ccc(C2(c3cccc(-c4ccccc4)c3)NC(=N)N(C3CCCCC3)C2=O)cc1` (stereo not drawn) [Example 177, 3-cyclohexyl-2-imino-5-(4-methoxyphenyl)-5-(3-phenylphenyl)-imidazolidin-4-one]: the IC50 in experiment [1] (Table 13) came to 11.7 nM; in experiment [2] (setting [4]), 1490 nM; in experiment [2] (setting [3]), 1490 nM.

In the case of `COc1ccc(C2(c3ccccc3)NC(=N)N(C3CCCCC3)C2=O)cc1` (stereo not drawn) [Example 141, 3-cyclohexyl-2-imino-5-(4-methoxyphenyl)-5-phenylimidazolidin-4-one], the IC50 in experiment [1] (Table 13) was found to be 10.6 nM; in experiment [2] (setting [4]) it was 533 nM; in experiment [2] (setting [3]), 533 nM.

With `N=C1NC(c2ccccc2)(c2cccc(-c3ccncc3)c2)C(=O)N1C1CCCCC1` (stereo not drawn) [Example 211, 3-cyclohexyl-2-imino-5-phenyl-5-[3-(pyridin-4-yl)phenyl]-imidazolidin-4-one], the concentration for half-maximal inhibition (IC50) turned out to be 14.1 nM in experiment [1] (Table 13) and 1030 nM in experiment [2] (setting [3]).

Regarding `COc1cccc(-c2cccc(C3(c4ccccc4)NC(=N)N(C)C3=O)c2)c1` (stereo not drawn) [Example 327, 2-imino-5-[3-(3-methoxyphenyl)phenyl]-3-methyl-5-phenyl-imidazolidin-4-one], the IC50 in experiment [1] (Table 12) came out at 240 nM; in experiment [2] (setting [5]) it was 4970 nM.

Take `COc1cccc(-c2cccc(C3(C4CC4)NC(=N)N(C)C3=O)c2)c1` (stereo not drawn) [Example 330, 5-cyclopropyl-2-imino-5-[3-(3-methoxyphenyl)-phenyl]-3-methyl-imidazolidin-4-one]: the values for the half-inhibitory concentration (IC50) in experiment [1] (Table 12) and in experiment [2] (setting [5]) were 751 nM and roughly 2400 nM, respectively.

With `COc1ccc(C2(c3cccc(-c4ccccn4)c3)NC(=N)N(C3CCCCC3)C2=O)cc1` (stereo not drawn) [Example 210, 3-cyclohexyl-2-imino-5-(4-methoxyphenyl)-5-[3-(pyridin-2-yl)-phenyl]imidazolidin-4-one], the IC50 in experiment [1] (Table 13) worked out at 5.47 nM; in experiment [2] (setting [4]) it was 1810 nM; in experiment [2] (setting [3]), 1810 nM.

Consider `N=C1NC(c2ccc(Cl)cc2)(c2ccc(Cl)cc2)C(=O)N1C1CCCCC1` [Example 155, 5,5-bis(4-chlorophenyl)-3-cyclohexyl-2-iminoimidazolidin-4-one], for which the IC50 in experiment [1] (Table 13) came out at 6 nM; in experiment [2] (setting [4]) it was 1070 nM; in experiment [2] (setting [3]), 1070 nM.

Regarding `N=C1NC(c2ccc(Cl)cc2)(C2CCCCC2)C(=O)N1C1CCCCC1` (stereo not drawn) [Example 575, 5-(4-chlorophenyl)-3,5-dicyclohexyl-2-iminoimidazolidin-4-one], in experiment [2] (setting [3]), the half-maximal inhibitory concentration (IC50) amounted to 1090 nM.

Regarding `N=C1NC(c2ccc(O)cc2)(c2ccc(O)cc2)C(=O)N1C1CCOCC1` [Example 550, 5,5-bis(4-hydroxyphenyl)-2-imino-3-(tetrahydro-2H-pyran-4-yl)imidazolidin-4-one], the IC50 in experiment [2] (setting [3]) is 2480 nM.

As for `COc1ccc(C2(c3ccc(OC)cc3)NC(=N)N(Cc3cccc(OC)c3)C2=O)cc1` [Example 236, 2-imino-5,5-bis(4-methoxyphenyl)-3-[(3-methoxyphenyl)-methyl]imidazolidin-4-one], in experiment [2] (setting [3]), the half-maximal inhibitory concentration (IC50) was determined as 708 nM.

`COc1ccc(C2(c3ccc(OC)cc3)NC(=N)N(Cc3cccc4ccccc34)C2=O)cc1` [Example 223, 2-imino-5,5-bis(4-methoxyphenyl)-3-(naphthalen-1-ylmethyl)-imidazolidin-4-one]: the concentration for half-maximal inhibition (IC50) in experiment [2] (setting [3]) was determined as 644 nM.

Turning to `N=C1NC(c2cccc(O)c2)(C2CC2)C(=O)N1C1CCOCC1` (stereo not drawn) [Example 519, 5-cyclopropyl-5-(3-hydroxyphenyl)-2-imino-3-(tetrahydro-2H-pyran-4-yl)imidazolidin-4-one], the half-inhibitory concentration (IC50) in experiment [2] (setting [3]) came out at 5650 nM.

With `COc1cccc(C2(c3cccc(-c4ccncc4)c3)NC(=N)N(C3CCCCC3)C2=O)c1` (stereo not drawn) [Example 225, 3-cyclohexyl-2-imino-5-(3-methoxy-phenyl)-5-[3-(pyridin-4-yl)phenyl]imidazolidin-4-one], the IC50 in experiment [2] (setting [4]) and in experiment [2] (setting [3]) was 318 nM throughout.

As to `N=C1NC(c2ccc(OC(F)(F)F)cc2)(C2CC2)C(=O)N1C1CCOCC1` (stereo not drawn) [Example 494, 5-cyclopropyl-2-imino-3-(tetrahydro-2H-pyran-4-yl)-5-(4-(trifluoromethoxy)phenyl)imidazolidin-4-one], the IC50 in experiment [2] (setting [3]) is 680 nM.

Take `COc1ccc(C2(c3ccc(OC)cc3)NC(=N)N(Cc3cc(C)ccc3C)C2=O)cc1` [Example 272, 3-[(2,5-dimethylphenyl)-methyl]-2-imino-5,5-bis(4-methoxyphenyl) imidazolidin-4-one]: the concentration for half-maximal inhibition (IC50) in experiment [2] (setting [3]) was determined as 976 nM.

For `N=C1NC(c2ccc(Cl)cc2)(C2CC2)C(=O)N1C1CCOCC1` (stereo not drawn) [Example 496, 5-(4-chlorophenyl)-5-cyclopropyl-2-imino-3-(tetrahydro-2H-pyran-4-yl)imidazolidin-4-one], in experiment [2] (setting [3]), the 50% inhibitory concentration (IC50) turned out to be 350 nM.

For `COc1ccc(C2(c3ccc(OC)cc3)NC(=N)N(Cc3ccc(C)cc3)C2=O)cc1` [Example 231, 2-imino-5,5-bis(4-methoxyphenyl)-3-[(4-methylphenyl)-methyl]imidazolidin-4-one], the concentration for half-maximal inhibition (IC50) in experiment [2] (setting [3]) is 795 nM.

As for `COc1ccc(C2(C3CC3)NC(=N)N(C3CCOCC3)C2=O)cc1-c1cccnc1` (stereo not drawn) [Example 490, 5-cyclopropyl-2-imino-5-(4-methoxy-3-(pyridin-3-yl)phenyl)-3-(tetrahydro-2H-pyran-4-yl)imidazolidin-4-one], the half-inhibitory concentration (IC50) in experiment [2] (setting [3]) is 515 nM.

As for `CC(C)COc1ccc(C2(c3cccc(-c4cccnc4)c3)NC(=N)N(C3CCOCC3)C2=O)cc1` (stereo not drawn) [Example 412, 2-imino-5-(4-isobutoxyphenyl)-5-(3-(pyridin-3-yl)phenyl)-3-(tetrahydro-2H-pyran-4-yl)imidazolidin-4-one], in experiment [2] (setting [3]), the IC50 amounted to 4210 nM.

Regarding `COc1ccc(C2(c3ccc(OC)cc3)NC(=N)N(Cc3ccc(Cl)cc3)C2=O)cc1` [Example 232, 3-[(4-chlorophenyl)-methyl]-2-imino-5,5-bis(4-methoxyphenyl)-imidazolidin-4-one], the IC50 in experiment [2] (setting [3]) is 1270 nM.

In the case of `CN1C(=N)NC(c2ccccc2)(c2cccc(-c3cccnc3)c2)C1=O` (stereo not drawn) [Example 135, 2-imino-3-methyl-5-phenyl-5-[3-(pyridin-3-yl)phenyl]-imidazolidin-4-one], in experiment [1] (Table 12), the IC50 was determined as 1010 nM.

As to `N=C1NC(c2ccccc2O)(C2CC2)C(=O)N1C1CCCCC1` (stereo not drawn) [Example 573, 3-cyclohexyl-5-cyclopropyl-5-(2-hydroxyphenyl)-2-iminoimidazolidin-4-one], in experiment [2] (setting [3]), the 50% inhibitory concentration (IC50) is greater than 20000 nM.

Regarding `N=C1NC(c2ccc(Cl)cc2)(C2CC2)C(=O)N1C1CCCCC1` (stereo not drawn) [Example 577, 5-(4-chlorophenyl)-3-cyclohexyl-5-cyclopropyl-2-iminoimidazolidin-4-one], the IC50 in experiment [2] (setting [3]) amounted to 1670 nM.

`COc1ccc(CN2C(=N)NC(c3ccc(OC)cc3)(c3ccc(OC)cc3)C2=O)cc1` [Example 233, 2-imino-5,5-bis(4-methoxyphenyl)-3-[(4-methoxyphenyl)-methyl]imidazolidin-4-one]: the IC50 in experiment [2] (setting [3]) worked out at 554 nM.

Regarding `COc1ccc(C2(c3ccc(OC)cc3)NC(=N)N(Cc3ccccc3F)C2=O)cc1` [Example 306, 3-[(2-fluorophenyl)-methyl]-2-imino-5,5-bis(4-methoxyphenyl)-imidazolidin-4-one], the IC50 in experiment [2] (setting [3]) turned out to be 5230 nM.

As to `COc1ccc(C2(c3ccc(OC)cc3)NC(=N)N(Cc3cccc(C)c3)C2=O)cc1` [Example 253, 2-imino-5,5-bis(4-methoxyphenyl)-3-[(3-methylphenyl)-methyl]imidazolidin-4-one], the IC50 in experiment [2] (setting [3]) came out at 381 nM.

With `N=C1NC(c2cccc(Oc3ccccc3)c2)(C2CC2)C(=O)N1C1CCCCC1` (stereo not drawn) [Example 570, 3-cyclohexyl-5-cyclopropyl-2-imino-5-(3-phenoxyphenyl)imidazolidin-4-one], in experiment [2] (setting [3]), the IC50 is 2870 nM.

Consider `COc1cccc(C2(c3cccc(OCc4ccccc4)c3)NC(=N)N(C3CCCCC3)C2=O)c1` (stereo not drawn) [Example 230], for which the IC50 in experiment [2] (setting [3]) was determined as 828 nM.

Turning to `N=C1NC(c2ccc(Cl)cc2)(C2CCCCC2)C(=O)N1C1CCOCC1` (stereo not drawn) [Example 574, 5-(4-chlorophenyl)-5-cyclohexyl-2-imino-3-(tetrahydro-2H-pyran-4-yl)imidazolidin-4-one], the IC50 in experiment [2] (setting [3]) was 270 nM.

On to `COc1cc(C2(C3CCCCC3)NC(=N)N(C3CCOCC3)C2=O)ccc1Cl` (stereo not drawn) [Example 501, 5-(4-chloro-3-methoxyphenyl)-5-cyclohexyl-2-imino-3-(tetrahydro-2H-pyran-4-yl)imidazolidin-4-one], for which the 50% inhibitory concentration (IC50) in experiment [2] (setting [3]) was found to be 1540 nM.

As to `CC(C)COc1cccc(C2(c3cccc(OCC(C)C)c3)NC(=N)N(C3CCOCC3)C2=O)c1` [Example 389, 2-imino-5,5-bis[3-(2-methylpropoxy)phenyl]-3-(oxan-4-yl)imidazolidin-4-one], the IC50 in experiment [2] (setting [3]) is greater than 5000 nM.

The values above are taken from patent publication US9353089B2, “Compositions and methods for the treatment of malaria” (Saint Louis University, priority 2013, dated 2016).
